pIC50: −log10 of the molar value.

The results in this text go back to PMC6692352, “DF2726A, a new IL-8 signalling inhibitor, is able to counteract chemotherapy-induced neuropathic pain” (Scientific Reports, 2019).

Data set [1] deals with CXCL1-induced hPMN chemotaxis. In words: CXCL1-induced hPMN chemotaxis, 48-well microchemotaxis chamber. The class given is cell-based, human. The following applies: hPMN pre-incubated 15 min at 37°C, migration 45 min. The source says: chemotherapy-induced neuropathic pain”
Benedetti, Antonio Giordano, Annamaria Cimini, Marcello Allegretti.
Chemokines were from PeproTech (London, UK). Chemicals and cell culture reagents were from Sigma Aldrich (Saint Louis, MI, USA).
Cell isolation and culture
L’Aquila, Italy. Ethical clearance was obtained to perform these experiments. Human PMNs were […]
blood cells as previously described 1.
Cell viability, as measured by Trypan Blue dye exclusion, was greater than 98%. […]
microchemotaxis chamber, as previously described 2. Briefly, 25 µl of control medium (PBS for […]
the lower compartment of the chemotaxis chamber. […]
vehicle were seeded in the upper compartment. The two compartments were separated by 5 µm pre-size polycarbonate filter (polyvinylpyrrolidone-free for PMN chemotaxis). The chamber was […]
Physicochemical characterization […]
and a turbidity-sensing device. […]
water/HBSS to a final concentration of 10 μM. Cell membrane homogenates (48 μg protein) were […]

Data set [2] deals with p-STAT3. Briefly: p-STAT3 western blotting in F11-derived neurons. It is filed as cell-based. As to conditions: 24 h. Here is the method: Following neuronal differentiation, neurons were treated for 24 h with DF2726A (1 μM final concentration), oxaliplatin (Sigma-Aldrich; 20 µM final concentration), or the combination of the two molecules.
Control and treated cells were collected and lysed in ice-cold RIPA buffer (PBS pH 7.4 containing 0.5% sodium deoxycolate, 1% Igepal, 0.1% SDS, 5 mM EDTA, 1% protease and phosphatase inhibitor cocktails; Sigma-Aldrich) as described in[22],[33]. Protein lysates (30 μg) were separated on 8–12% SDS-polyacrilamide gel and electroblotted onto polyvinyldifluoride membrane (PVDF; Sigma-Aldrich). Nonspecific binding sites were blocked by 5% non-fat dry milk (Bio-Rad Laboratories, Hercules, CA, USA) in Tris buffered saline (TBS: 20 mM Tris- HCl, pH 7.4, containing 150 mM NaCl) for 30 min at RT. […] The relative densities of immunoreactive bands were determined and normalized HRP-conjugated β-actin, using ImageJ software. […]
(A western blot detects proteins with antibodies after separation by electrophoresis.)

Data set [3] deals with Iba-1. Briefly: Western blot of DRG of oxaliplatin rats, microglia marker Iba-1. The class given is in vivo, male Wistar rats. The following applies: 30 mg/kg os; p < 0.01 vs OXA rats. As to the method:
(§1) Animals were sacrificed and dorsal root ganglia (DRG) (L4-L6) were removed and stored at […]. They were homogenized on ice-cold lysis buffer [20 mM Tris–HCl (pH 7.5), 10 mM NaF, 150 mM NaCl, 1% Nonidet P-40, 1 mM phenylmethylsulfonyl fluoride, 1 mM Na3VO4, leupeptin and trypsin inhibitor 10 μg/mL; 20 µl/sample, as previously described.
(§2) After 1 h, tissue lysates were obtained by centrifugation at 20,000 g for 15 min at 4 °C. Protein concentrations were estimated by the Bio-Rad protein assay using bovine serum albumin as standard.
(§3) DRG lysate proteins (30 μg) were dissolved in Laemmli sample buffer, boiled for 5 min, and separated on SDS-polyacrylamide gel elctrophoresis and transferred onto nitrocellulose membrane (240 mA for 40 min at room temperature). […] The protein bands were scanned and densitometrically analyzed with a model GS-700 imaging densitometer (Bio-Rad Laboratories, Milan, Italy). […]

Data set [4] concerns the target CYP 3A4 (Homo sapiens, UniProt P08684). Briefly: CYP inhibition 3A4. The class given is in vitro ADME. An excerpt: Table 1 Physicochemical and in Vitro ADME Properties of DF2726A. | column: DF2726A
For data set [5], the system named is GFAP. Briefly: Western blot of DRG of oxaliplatin rats, astrocyte marker GFAP. It is filed as in vivo, male Wistar rats. The following applies: 30 mg/kg os; p < 0.01 vs OXA rats. Here is the method:
as §1, §2, §3

Chain of CYP 3A4 (P08684 whole entry): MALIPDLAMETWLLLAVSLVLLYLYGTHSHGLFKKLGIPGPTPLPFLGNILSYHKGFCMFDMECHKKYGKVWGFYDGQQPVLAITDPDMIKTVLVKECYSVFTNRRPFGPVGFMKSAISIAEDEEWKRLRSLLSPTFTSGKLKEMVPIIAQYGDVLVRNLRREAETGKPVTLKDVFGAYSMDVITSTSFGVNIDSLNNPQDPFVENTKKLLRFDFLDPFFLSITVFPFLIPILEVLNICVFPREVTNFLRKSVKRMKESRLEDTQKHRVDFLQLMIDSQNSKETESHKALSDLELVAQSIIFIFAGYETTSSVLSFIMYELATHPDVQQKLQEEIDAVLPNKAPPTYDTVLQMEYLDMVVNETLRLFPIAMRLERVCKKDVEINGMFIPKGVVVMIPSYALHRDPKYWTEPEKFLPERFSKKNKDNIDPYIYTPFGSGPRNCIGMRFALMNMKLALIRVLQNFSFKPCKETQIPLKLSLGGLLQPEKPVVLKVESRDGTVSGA

What is called pIC50 is −log10 of the IC50, conventionally taken in molar units. `CC(C)(C(=O)O)c1ccc(Nc2nc(C(F)(F)F)cs2)cc1` [DF2726A]: the negative logarithm of the IC50 (pIC50) in data set [1] was 8.10; in data set [4], less than 4.52. In data set [2] (DF2726A 1 µM + oxaliplatin 20 µM), the “p-STAT3 levels, oxaliplatin-treated neurons” value was “counteracted this effect”. Also, the “p-STAT3 levels, paclitaxel-treated neurons” value in data set [2] (DF2726A + paclitaxel 10 nM) is on record as “counteracted this effect”. Further, the “Iba-1 expression in DRG of oxaliplatin rats” value in data set [3] is on record as “significantly reduced the expression”. For the same compound, the “GFAP expression in DRG of oxaliplatin rats” value in data set [5] was “significantly reduced the expression”.
